Legend:
[1] = tested on: BRSNS (Brassica napus); experiment: Drought stress test on greenhouse crop plants, spray application, efficacy EF (BRSNS); assay type: in vivo; details: dosage 25 g/ha, 600 l/ha water, mean of three results
Description: (§1) Seeds of monocotyledonous and dicotyledonous crop plants were laid out in sandy loam in wood-fiber pots, covered with soil and cultivated in a greenhouse under good growth conditions. The test plants were treated at the early leaf stage (BBCH10-BBCH13). To ensure uniform water supply before commencement of stress, the potted plants were supplied with the maximum amount of water immediately beforehand by dam irrigation and, after application, transferred in plastic inserts in order to prevent subsequent, excessively rapid drying. The inventive compounds, formulated in the form of wettable powders (WP), wettable granules (WG), suspension concentrates (SC) or emulsion concentrates (EC), were sprayed onto the green parts of the plants as an aqueous suspension at an equivalent water application rate of 600 l/ha with addition of 0.2% wetting agent (agrotin). Substance application is followed immediately by stress treatment of the plants (cold or drought stress). For cold stress treatment, the plants were kept under the following controlled conditions: • “day”: 12 hours with illumination at 8° C. • “night”: 12 hours without illumination at 1° C. […] The intensity of damage was first assessed as a percentage (100%=plants have died, 0%=like control plants). […]

[2] = tested on: ZEAMX (Zea mays); experiment: Drought stress test on greenhouse crop plants, spray application, efficacy EF (ZEAMX); assay type: in vivo; details: dosage 25 g/ha, 600 l/ha water, mean of three results
Description: as §1

SMILES: CC1=CC(=O)C2CC2(C)C1(O)C#CC1=CC(=O)OC1 (centres unmarked) [I.4-54, 4-[(2-hydroxy-1,3-dimethyl-5-oxobicyclo[4.1.0]hept-3-en-2-yl)ethynyl]furan-2(5H)-one]
- EF (BRSNS): efficacy = percentage reduction in the intensity of damage [1]: >5%
- EF (ZEAMX): efficacy = percentage reduction in the intensity of damage [2]: >5%
